# Results: patent publication US20050065062A1, “Method of formulating a pharmaceutical composition” (3M Innovative Properties Company, priority 2003, published 2005)
# Where two headings read alike, the source gives them in different places.
# Columns and labels:
# [1] = Franz diffusion cell, membrane diffusion across hairless mouse skin; format: in vitro ADME; settings: for relative order for membrane diffusion rate: ranking of excipients
# Description: Diffusion of the compounds through hairless mouse skin into phosphate buffer in a Franz cell was carried out and measured as described in Example 1, with Sudan I being used in place of Fat Brown RR.
# [2] = 0 h
# [3] = Franz diffusion cell, membrane diffusion across poly(dimethylsiloxane) membrane; settings: ranking of excipients
# [4] = Table 3, saturated solution in alpha-terpineol, 0 hours
# [5] = Table 3, saturated solution in alpha-terpineol, 24 hours
# [6] = Table 3, saturated solution in isostearic acid, 0 hours
# [7] = Table 3, saturated solution in isostearic acid, 24 hours
# [8] = Table 3, saturated solution in propylene glycol, 0 hours
# [9] = Table 3, saturated solution in propylene glycol, 24 hours
# [10] = Table 3, saturated solution in tetraglycol, 0 hours
# [11] = Table 3, saturated solution in tetraglycol, 24 hours
structure (smiles),measurement,setting,value
Oc1ccc2ccccc2c1N=Nc1ccccc1 [Sudan I],CUMULATIVE AMOUNT OF COMPOUND DIFFUSED ACROSS SKIN,[1]; [4],0 μg/10 mL
same,CUMULATIVE AMOUNT OF COMPOUND DIFFUSED ACROSS SKIN,[1]; [5],72 μg/10 mL
same,CUMULATIVE AMOUNT OF COMPOUND DIFFUSED ACROSS SKIN,"[1]; Table 3, saturated solution in alpha-terpineol, 50 hours",201 μg/10 mL
same,CUMULATIVE AMOUNT OF COMPOUND DIFFUSED ACROSS SKIN,"[1]; Table 3, saturated solution in alpha-terpineol, 59 hours",259 μg/10 mL
same,CUMULATIVE AMOUNT OF COMPOUND DIFFUSED ACROSS SKIN,[1]; [6],0 μg/10 mL
same,CUMULATIVE AMOUNT OF COMPOUND DIFFUSED ACROSS SKIN,[1]; [7],38 μg/10 mL
same,CUMULATIVE AMOUNT OF COMPOUND DIFFUSED ACROSS SKIN,"[1]; Table 3, saturated solution in isostearic acid, 50 hours",118 μg/10 mL
same,CUMULATIVE AMOUNT OF COMPOUND DIFFUSED ACROSS SKIN,"[1]; Table 3, saturated solution in isostearic acid, 59 hours",149 μg/10 mL
same,CUMULATIVE AMOUNT OF COMPOUND DIFFUSED ACROSS SKIN,[1]; [8],0 μg/10 mL
same,CUMULATIVE AMOUNT OF COMPOUND DIFFUSED ACROSS SKIN,[1]; [9],31 μg/10 mL
same,CUMULATIVE AMOUNT OF COMPOUND DIFFUSED ACROSS SKIN,"[1]; Table 3, saturated solution in propylene glycol, 50 hours",108 μg/10 mL
same,CUMULATIVE AMOUNT OF COMPOUND DIFFUSED ACROSS SKIN,"[1]; Table 3, saturated solution in propylene glycol, 59 hours",142 μg/10 mL
same,CUMULATIVE AMOUNT OF COMPOUND DIFFUSED ACROSS SKIN,[1]; [10],0 μg/10 mL
same,CUMULATIVE AMOUNT OF COMPOUND DIFFUSED ACROSS SKIN,[1]; [11],11 μg/10 mL
same,CUMULATIVE AMOUNT OF COMPOUND DIFFUSED ACROSS SKIN,"[1]; Table 3, saturated solution in tetraglycol, 50 hours",61 μg/10 mL
same,CUMULATIVE AMOUNT OF COMPOUND DIFFUSED ACROSS SKIN,"[1]; Table 3, saturated solution in tetraglycol, 59 hours",81 μg/10 mL
same,relative order for membrane diffusion rate,[1],alpha-terpineol>tetraglycol
"C[C@]12CC[C@H]3[C@@H](CCC4=CC(=O)CC[C@@]43C)[C@@H]1CC[C@@H]2O [Testosterone, testosterone]",CUMULATIVE AMOUNT OF COMPOUND DIFFUSED ACROSS SKIN,[1]; [4],0 μg/10 mL
same,CUMULATIVE AMOUNT OF COMPOUND DIFFUSED ACROSS SKIN,"[1]; Table 3, saturated solution in alpha-terpineol, 6 hours",605 μg/10 mL
same,CUMULATIVE AMOUNT OF COMPOUND DIFFUSED ACROSS SKIN,"[1]; Table 3, saturated solution in alpha-terpineol, 12 hours",1585 μg/10 mL
same,CUMULATIVE AMOUNT OF COMPOUND DIFFUSED ACROSS SKIN,"[1]; Table 3, saturated solution in alpha-terpineol, 18 hours",3043 μg/10 mL
same,CUMULATIVE AMOUNT OF COMPOUND DIFFUSED ACROSS SKIN,[1]; [5],4414 μg/10 mL
same,CUMULATIVE AMOUNT OF COMPOUND DIFFUSED ACROSS SKIN,[1]; [6],0 μg/10 mL
same,CUMULATIVE AMOUNT OF COMPOUND DIFFUSED ACROSS SKIN,"[1]; Table 3, saturated solution in isostearic acid, 6 hours",74 μg/10 mL
same,CUMULATIVE AMOUNT OF COMPOUND DIFFUSED ACROSS SKIN,"[1]; Table 3, saturated solution in isostearic acid, 12 hours",192 μg/10 mL
same,CUMULATIVE AMOUNT OF COMPOUND DIFFUSED ACROSS SKIN,"[1]; Table 3, saturated solution in isostearic acid, 18 hours",418 μg/10 mL
same,CUMULATIVE AMOUNT OF COMPOUND DIFFUSED ACROSS SKIN,[1]; [7],740 μg/10 mL
same,CUMULATIVE AMOUNT OF COMPOUND DIFFUSED ACROSS SKIN,[1]; [8],0 μg/10 mL
same,CUMULATIVE AMOUNT OF COMPOUND DIFFUSED ACROSS SKIN,"[1]; Table 3, saturated solution in propylene glycol, 6 hours",79 μg/10 mL
same,CUMULATIVE AMOUNT OF COMPOUND DIFFUSED ACROSS SKIN,"[1]; Table 3, saturated solution in propylene glycol, 12 hours",216 μg/10 mL
same,CUMULATIVE AMOUNT OF COMPOUND DIFFUSED ACROSS SKIN,"[1]; Table 3, saturated solution in propylene glycol, 18 hours",546 μg/10 mL
same,CUMULATIVE AMOUNT OF COMPOUND DIFFUSED ACROSS SKIN,[1]; [9],956 μg/10 mL
same,CUMULATIVE AMOUNT OF COMPOUND DIFFUSED ACROSS SKIN,[1]; [10],0 μg/10 mL
same,CUMULATIVE AMOUNT OF COMPOUND DIFFUSED ACROSS SKIN,"[1]; Table 3, saturated solution in tetraglycol, 6 hours",23 μg/10 mL
same,CUMULATIVE AMOUNT OF COMPOUND DIFFUSED ACROSS SKIN,"[1]; Table 3, saturated solution in tetraglycol, 12 hours",46 μg/10 mL
same,CUMULATIVE AMOUNT OF COMPOUND DIFFUSED ACROSS SKIN,"[1]; Table 3, saturated solution in tetraglycol, 18 hours",81 μg/10 mL
same,CUMULATIVE AMOUNT OF COMPOUND DIFFUSED ACROSS SKIN,[1]; [11],119 μg/10 mL
same,relative order for membrane diffusion rate,[1],alpha-terpineol>propylene glycol>isostearic acid>tetraglycol
same,CUMULATIVE AMOUNT OF COMPOUND DIFFUSED ACROSS SKIN,"[1]; saturated solution in alpha-terpineol, 0 hours",0 µg/mL
same,CUMULATIVE AMOUNT OF COMPOUND DIFFUSED ACROSS SKIN,"[1]; saturated solution in alpha-terpineol, 6 hours",605 µg/mL
same,CUMULATIVE AMOUNT OF COMPOUND DIFFUSED ACROSS SKIN,"[1]; saturated solution in alpha-terpineol, 12 hours",1585 µg/mL
same,CUMULATIVE AMOUNT OF COMPOUND DIFFUSED ACROSS SKIN,"[1]; saturated solution in alpha-terpineol, 18 hours",3043 µg/mL
same,CUMULATIVE AMOUNT OF COMPOUND DIFFUSED ACROSS SKIN,"[1]; saturated solution in alpha-terpineol, 24 hours",4414 µg/mL
same,CUMULATIVE AMOUNT OF COMPOUND DIFFUSED ACROSS SKIN,"[1]; saturated solution in isostearic acid, 0 hours",0 µg/mL
same,CUMULATIVE AMOUNT OF COMPOUND DIFFUSED ACROSS SKIN,"[1]; saturated solution in isostearic acid, 6 hours",74 µg/mL
same,CUMULATIVE AMOUNT OF COMPOUND DIFFUSED ACROSS SKIN,"[1]; saturated solution in isostearic acid, 12 hours",192 µg/mL
same,CUMULATIVE AMOUNT OF COMPOUND DIFFUSED ACROSS SKIN,"[1]; saturated solution in isostearic acid, 18 hours",418 µg/mL
same,CUMULATIVE AMOUNT OF COMPOUND DIFFUSED ACROSS SKIN,"[1]; saturated solution in isostearic acid, 24 hours",740 µg/mL
same,CUMULATIVE AMOUNT OF COMPOUND DIFFUSED ACROSS SKIN,"[1]; saturated solution in propylene glycol, 0 hours",0 µg/mL
same,CUMULATIVE AMOUNT OF COMPOUND DIFFUSED ACROSS SKIN,"[1]; saturated solution in propylene glycol, 6 hours",79 µg/mL
same,CUMULATIVE AMOUNT OF COMPOUND DIFFUSED ACROSS SKIN,"[1]; saturated solution in propylene glycol, 12 hours",216 µg/mL
same,CUMULATIVE AMOUNT OF COMPOUND DIFFUSED ACROSS SKIN,"[1]; saturated solution in propylene glycol, 18 hours",546 µg/mL
same,CUMULATIVE AMOUNT OF COMPOUND DIFFUSED ACROSS SKIN,"[1]; saturated solution in propylene glycol, 24 hours",956 µg/mL
same,CUMULATIVE AMOUNT OF COMPOUND DIFFUSED ACROSS SKIN,"[1]; saturated solution in tetraglycol, 0 hours",0 µg/mL
same,CUMULATIVE AMOUNT OF COMPOUND DIFFUSED ACROSS SKIN,"[1]; saturated solution in tetraglycol, 6 hours",23 µg/mL
same,CUMULATIVE AMOUNT OF COMPOUND DIFFUSED ACROSS SKIN,"[1]; saturated solution in tetraglycol, 12 hours",46 µg/mL
same,CUMULATIVE AMOUNT OF COMPOUND DIFFUSED ACROSS SKIN,"[1]; saturated solution in tetraglycol, 18 hours",81 µg/mL
same,CUMULATIVE AMOUNT OF COMPOUND DIFFUSED ACROSS SKIN,"[1]; saturated solution in tetraglycol, 24 hours",119 µg/mL
C#C[C@]1(O)CC[C@H]2[C@@H]3CCC4=CC(=O)CC[C@@H]4[C@H]3CC[C@@]21CC [levonorgestrel],CUMULATIVE AMOUNT OF COMPOUND DIFFUSED ACROSS SKIN,[2],0 μg/10 mL
same,relative order for membrane diffusion rate,[3],alpha-terpineol>isostearic acid>tetraglycol
